{
  "source": "paper PMC2895771",
  "about": "(Journal of the American Chemical Society, 2010)",
  "key": {"[1]": {"target": "T1, GST-fused PHD finger of ING2 (GST-ING2PHD) (Homo sapiens, UniProt Q9H160)", "T1 sequence (Q9H160 212-261 limits assumed)": "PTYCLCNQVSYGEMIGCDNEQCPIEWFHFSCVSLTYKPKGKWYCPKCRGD", "assay": "UV photocrosslinking labeling of recombinant GST-ING2PHD by probe 1", "format": "biochemical", "conditions": "UV irradiation 1 h, coupled to rhodamine azide; in words"}, "[2]": {"system": "PHD finger of BPTF", "assay": "labeling of recombinant BPTF PHD finger by probe 1 and competition by peptides", "format": "biochemical", "conditions": "probe 1 (1 μM), protein 100 ng; in words"}, "[3]": {"system": "double tudor domain of JMJD2A", "format": "biochemical", "conditions": "probe 1 (1 μM), protein 100 ng; in words"}, "[4]": {"system": "GST-ING2PHD", "format": "biochemical", "conditions": "probe 1 (1 μM); GST-ING2PHD 10 μg/mL, 280 nM; Hela cell lysates 2 mg/mL; in words"}, "[5]": {"system": "endogenous ING2", "assay": "capture of endogenous ING2 from Hela cell lysates", "conditions": "probe 1 (2 μM), UV, biotin-N3, streptavidin, Western blot, in words"}},
  "data": [
    {"substance": "probe 1: H3K4me3 peptide probe; benzophenone moiety replaced the side chain of Ala 7; spacer (H3 residues 8–15) and an alkyne (ARTKQT; not fully specified; trimethyl-lysine at 4 (K(me3)); benzophenone moiety in place of the side chain of Ala 7; an alkyne group)", "values": [
      {"measurement": "labeling of the recombinant protein", "setting": "[1]", "value": "successfully labeled the recombinant protein in a dose-dependent manner"},
      {"measurement": "labeling of recombinant protein", "setting": "[2]", "value": "robust labeling"},
      {"measurement": "labeling of recombinant protein", "setting": "[3]", "value": "robust labeling"},
      {"measurement": "labeling of GST-ING2PHD in cell lysates", "setting": "[4]", "value": "robustly labeled"},
      {"measurement": "capture of endogenous ING2", "setting": "[5]", "value": "endogenous ING2 was captured by the probe"}
    ]}
  ]
}
